Data taken from ChEMBL document CHEMBL2385022, “Therapeutic and pharmacokinetic characterizations of an anti-amyloidogenic bis-styrylbenzene derivative for Alzheimer's disease treatment” (Bioorg Med Chem Lett, 2013).
The source made the active and inactive calls. No cut-off for these calls is given here.

How the values were obtained:
[1] = tested on: Rattus norvegicus; experiment: Acute toxicity in Sprague-Dawley rat assessed as mortality at 500 to 2000 mg/kg, po after 14 days; type: organism-based; design: dose 500-2000 mg/kg, route oral; settings: in vivo, 336 h
[2] = Apparent permeability from apical to basolateral side in mouse bEND.3 /rat C6 co-culture cell model after 1 hr by Transwell assay; type: ADME
[3] = target: Amyloid-beta precursor protein (Homo sapiens) (UniProt P05067); experiment: Inhibition of amyloid beta (1-42) fibril aggregation (unknown origin) at 100 uM after 20 hrs by transmission electron microscopic analysis
[4] = tested on: Rattus norvegicus; experiment: Toxicity in Sprague-Dawley rat assessed as change in body weight at 500 mg/kg, po after 10 days (reference value: 175.9 +/- 5.1 g); type: organism-based; design: dose 500 mg/kg, route oral; settings: in vivo, 240 h
[5] = AUC (0 to 24 hrs) in ICR mouse brain at 20 mg/kg, po; type: ADME, organism-based; design: time < 24 hr, dose 20 mg/kg, route oral
[6] = Cmax in ICR mouse plasma at 20 mg/kg, po; type: ADME, organism-based; design: dose 20 mg/kg, route oral
[7] = Half life in ICR mouse plasma at 10 mg/kg, iv; type: ADME, organism-based; design: dose 10 mg/kg, route intravenous
[8] = target: hERG (KCNH2) (Homo sapiens, UniProt Q12809); experiment: Inhibition of human ERG in HEK293 cells at 10 uM by patch clamp assay relative to control; type: cell-based; settings: HEK293 cells expressing human ERG
[9] = tested on: Mus musculus; experiment: Ratio of drug level in brain to plasma in ICR mouse at 10 mg/kg, iv […]; settings: in vivo
[10] = tested on: Rattus norvegicus; experiment: Toxicity in Sprague-Dawley rat assessed as change in body weight at 500 mg/kg, po after 5 days (reference value: 148.4 +/- 3.2 g); type: organism-based; design: dose 500 mg/kg, route oral; settings: in vivo, 120 h
[11] = Oral bioavailability in ICR mouse at 20 mg/kg; type: ADME, organism-based; settings: in vivo
[12] = tested on: Rattus norvegicus; experiment: Toxicity in Sprague-Dawley rat assessed as change in body weight at 2000 mg/kg, po after 1 day (reference value: 130.6 +/- 4.6 g); type: organism-based; design: dose 2000 mg/kg, route oral; settings: in vivo, 24 h
[13] = tested on: Rattus norvegicus; experiment: Toxicity in Sprague-Dawley rat assessed as change in body weight at 1000 mg/kg, po after 1 day (reference value: 130.6 +/- 4.6 g); type: organism-based; design: dose 1000 mg/kg, route oral; settings: in vivo, 24 h
[14] = Tmax in ICR mouse brain at 20 mg/kg, po; type: ADME, organism-based; design: dose 20 mg/kg, route oral
[15] = tested on: Rattus norvegicus; experiment: Toxicity in Sprague-Dawley rat assessed as change in body weight at 2000 mg/kg, po after 14 days (reference value: 199.1 +/- 4.8 g); type: organism-based; design: dose 2000 mg/kg, route oral; settings: in vivo, 336 h
[16] = Acute toxicity in po dosed Sprague-Dawley rat assessed as mortality after 14 days; type: organism-based; settings: in vivo
[17] = tested on: Mus musculus; experiment: Cognitive enhancing effect in amyloid beta (1-42) infused ICR mouse assessed as increase in alternation behavior at 30 mg/kg/day, ip administered 1 day prior to amyloid beta (1-42) infusion and continued for 6 days measured on day 6 by Y-maze test (reference value: 64.1%); type: functional; settings: route intraperitoneal
[18] = tested on: Rattus norvegicus; experiment: Toxicity in Sprague-Dawley rat assessed as change in body weight at 1000 mg/kg, po after 10 days (reference value: 175.9 +/- 5.1 g); type: organism-based; design: dose 1000 mg/kg, route oral; settings: in vivo, 240 h
[19] = Cmax in ICR mouse brain at 20 mg/kg, po; type: ADME, organism-based; design: dose 20 mg/kg, route oral
[20] = Tmax in ICR mouse plasma at 20 mg/kg, po; type: ADME, organism-based; design: dose 20 mg/kg, route oral
[21] = AUC (0 to 24 hrs) in ICR mouse plasma at 10 mg/kg, iv; type: ADME, organism-based; design: time < 24 hr, dose 10 mg/kg, route intravenous
[22] = Cmax in ICR mouse brain at 10 mg/kg, iv; type: ADME, organism-based; design: dose 10 mg/kg, route intravenous
[23] = tested on: Mus musculus; experiment: Ratio of drug level in brain to plasma in ICR mouse at 20 mg/kg, po […]; settings: in vivo
[24] = tested on: Rattus norvegicus; experiment: Toxicity in Sprague-Dawley rat assessed as change in body weight at 2000 mg/kg, po after 10 days (reference value: 175.9 +/- 5.1 g); type: organism-based; design: dose 2000 mg/kg, route oral; settings: in vivo, 240 h
[25] = tested on: Rattus norvegicus; experiment: Toxicity in Sprague-Dawley rat assessed as change in body weight at 2000 mg/kg, po after 5 days (reference value: 148.4 +/- 3.2 g); type: organism-based; design: dose 2000 mg/kg, route oral; settings: in vivo, 120 h
[26] = AUC (0 to 24 hrs) in ICR mouse brain at 10 mg/kg, iv; type: ADME, organism-based; design: time < 24 hr, dose 10 mg/kg, route intravenous
[27] = Tmax in ICR mouse brain at 10 mg/kg, iv; type: ADME, organism-based; design: dose 10 mg/kg, route intravenous
[28] = tested on: Rattus norvegicus; experiment: Toxicity in Sprague-Dawley rat assessed as change in body weight at 1000 mg/kg, po after 5 days (reference value: 148.4 +/- 3.2 g); type: organism-based; design: dose 1000 mg/kg, route oral; settings: in vivo, 120 h
[29] = tested on: Rattus norvegicus; experiment: Toxicity in Sprague-Dawley rat assessed as change in body weight at 1000 mg/kg, po after 14 days (reference value: 199.1 +/- 4.8 g); type: organism-based; design: dose 1000 mg/kg, route oral; settings: in vivo, 336 h
[30] = tested on: Rattus norvegicus; experiment: Toxicity in Sprague-Dawley rat assessed as change in body weight at 500 mg/kg, po after 1 day (reference value: 130.6 +/- 4.6 g); type: organism-based; design: dose 500 mg/kg, route oral; settings: in vivo, 24 h
[31] = Tmax in ICR mouse plasma at 10 mg/kg, iv; type: ADME, organism-based; design: dose 10 mg/kg, route intravenous
[32] = Cmax in ICR mouse plasma at 10 mg/kg, iv; type: ADME, organism-based; design: dose 10 mg/kg, route intravenous
[33] = Half life in ICR mouse brain at 10 mg/kg, iv; type: ADME, organism-based; design: dose 10 mg/kg, route intravenous
[34] = Half life in ICR mouse brain at 20 mg/kg, po; type: ADME, organism-based; design: dose 20 mg/kg, route oral
[35] = Half life in ICR mouse plasma at 20 mg/kg, po; type: ADME, organism-based; design: dose 20 mg/kg, route oral
[36] = AUC (0 to 24 hrs) in ICR mouse plasma at 20 mg/kg, po; type: ADME, organism-based; design: time < 24 hr, dose 20 mg/kg, route oral
[37] = tested on: Rattus norvegicus; experiment: Toxicity in Sprague-Dawley rat assessed as change in body weight at 500 mg/kg, po after 14 days (reference value: 199.1 +/- 4.8 g); type: organism-based; design: dose 500 mg/kg, route oral; settings: in vivo, 336 h

hERG (KCNH2), sequence (Q12809 whole entry): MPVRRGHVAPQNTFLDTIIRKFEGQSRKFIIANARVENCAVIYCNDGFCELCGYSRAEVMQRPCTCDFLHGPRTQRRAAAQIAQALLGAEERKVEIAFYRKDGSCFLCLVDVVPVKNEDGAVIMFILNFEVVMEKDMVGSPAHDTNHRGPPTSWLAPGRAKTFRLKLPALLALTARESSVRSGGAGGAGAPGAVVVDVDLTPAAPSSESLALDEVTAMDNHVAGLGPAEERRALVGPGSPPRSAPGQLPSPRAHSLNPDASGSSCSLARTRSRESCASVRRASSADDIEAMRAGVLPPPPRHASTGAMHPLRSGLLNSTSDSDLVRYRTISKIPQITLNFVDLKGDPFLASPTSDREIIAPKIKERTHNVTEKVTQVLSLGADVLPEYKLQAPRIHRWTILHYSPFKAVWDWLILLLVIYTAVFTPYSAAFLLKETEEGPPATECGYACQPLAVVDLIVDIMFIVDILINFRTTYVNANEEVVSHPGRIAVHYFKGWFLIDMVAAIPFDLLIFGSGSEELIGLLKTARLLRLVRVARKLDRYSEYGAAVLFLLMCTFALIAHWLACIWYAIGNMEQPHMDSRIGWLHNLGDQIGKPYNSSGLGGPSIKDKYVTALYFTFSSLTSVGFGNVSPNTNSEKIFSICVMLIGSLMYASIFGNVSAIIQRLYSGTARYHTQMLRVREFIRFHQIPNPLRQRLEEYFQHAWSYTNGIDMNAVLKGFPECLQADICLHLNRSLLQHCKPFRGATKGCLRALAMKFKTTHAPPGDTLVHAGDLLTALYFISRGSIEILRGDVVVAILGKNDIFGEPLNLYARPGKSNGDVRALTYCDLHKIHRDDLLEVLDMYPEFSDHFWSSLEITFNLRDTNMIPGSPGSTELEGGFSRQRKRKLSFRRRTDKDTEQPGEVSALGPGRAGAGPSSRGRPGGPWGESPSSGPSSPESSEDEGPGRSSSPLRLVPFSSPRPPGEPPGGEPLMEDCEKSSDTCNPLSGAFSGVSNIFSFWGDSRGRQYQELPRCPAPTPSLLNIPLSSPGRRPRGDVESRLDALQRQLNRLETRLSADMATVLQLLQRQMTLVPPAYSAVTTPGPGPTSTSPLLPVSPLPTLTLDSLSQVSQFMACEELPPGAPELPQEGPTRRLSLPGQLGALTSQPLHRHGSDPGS
Amyloid-beta precursor protein (Homo sapiens), sequence (P05067 whole entry): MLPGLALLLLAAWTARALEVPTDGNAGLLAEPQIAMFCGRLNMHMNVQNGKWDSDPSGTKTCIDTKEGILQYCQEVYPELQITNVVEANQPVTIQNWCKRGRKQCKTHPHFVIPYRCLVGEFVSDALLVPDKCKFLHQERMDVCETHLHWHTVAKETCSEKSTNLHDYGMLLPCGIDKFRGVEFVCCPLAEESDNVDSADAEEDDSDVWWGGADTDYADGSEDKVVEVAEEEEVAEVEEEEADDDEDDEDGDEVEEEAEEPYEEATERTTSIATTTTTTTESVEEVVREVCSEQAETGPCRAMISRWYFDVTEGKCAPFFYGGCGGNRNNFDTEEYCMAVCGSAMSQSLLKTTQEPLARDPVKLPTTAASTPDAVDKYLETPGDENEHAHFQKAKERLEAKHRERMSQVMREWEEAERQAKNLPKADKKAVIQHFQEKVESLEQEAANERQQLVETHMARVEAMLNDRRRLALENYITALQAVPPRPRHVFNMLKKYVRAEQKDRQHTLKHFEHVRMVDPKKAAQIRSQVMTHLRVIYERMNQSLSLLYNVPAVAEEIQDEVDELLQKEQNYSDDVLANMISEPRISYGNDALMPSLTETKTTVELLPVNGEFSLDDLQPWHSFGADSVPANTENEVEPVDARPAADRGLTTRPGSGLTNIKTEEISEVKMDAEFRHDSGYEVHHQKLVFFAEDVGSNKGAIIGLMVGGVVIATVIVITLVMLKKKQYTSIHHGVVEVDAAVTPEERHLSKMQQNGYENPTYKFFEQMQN

Row | SMILES | Activity [1] | Papp A→B at 1 h [2] [×10⁻⁶ cm/s] | inhibition [3] | Activity [4] [g] | inhibition at 10 µM [8] [%] | Activity [10] [g] | Activity [12] [g] | Activity [13] [g] | Activity [15] [g] | Activity [17] [%] | Activity [18] [g] | Activity [24] [g] | Activity [25] [g] | Activity [28] [g] | Activity [29] [g] | Activity [30] [g] | Activity [37] [g] | also measured
1 | CNc1ccc(/C=C/c2cccc(/C=C/c3ccc(NC)c(OC)c3)c2)cc1OC | Non-toxic | – | – | – | – | – | – | – | – | – | – | – | – | – | – | – | – | –
2 | COC(=O)c1ccccc1-c1c2ccc(=N)cc-2oc2cc(N)ccc12.Cl [RHODAMINE123] | – | 32 | – | – | – | – | – | – | – | – | – | – | – | – | – | – | – | –
3 | COc1cc(/C=C/C(=O)CC(=O)/C=C/c2ccc(O)c(OC)c2)ccc1O | – | – | Active | – | – | – | – | – | – | – | – | – | – | – | – | – | – | –
4 | COc1cc(/C=C/c2cccc(/C=C/c3ccc(N(C)C)c(OC)c3)c2)ccc1N(C)C | – | 670 | Active | 164.1 | 14 | 142.6 | 132.4 | 132 | 174.6 | 70 | 164.2 | 157.8 | 128.3 | 138.9 | 182.2 | 131.5 | 183.9 | AUC(0-t) at 24 h [5]: 4530 ng·h/mL; Cmax [6]: 3490 ng/mL; half-life [7]: 7.3 h; Drug uptake [9]: 26%; bioavailability [11]: 46.2%; Tmax [14]: 4.7 h; LD50 at 336 h [16]: > 2000 mg/kg; Cmax [19]: 395 ng/mL; Tmax [20]: 1 h; AUC(0-t) at 24 h [21]: 31600 ng·h/mL; Cmax [22]: 1410 ng/mL; Drug uptake [23]: 15%; AUC(0-t) at 24 h [26]: 8100 ng·h/mL; Tmax [27]: 0.4 h; Tmax [31]: 4.8 min; Cmax [32]: 13100 ng/mL; half-life [33]: 6.04 h; half-life [34]: 14.5 h; half-life [35]: 9.4 h; AUC(0-t) at 24 h [36]: 29200 ng·h/mL
5 | NCCCS(=O)(=O)O [TRAMIPROSATE] | Non-toxic | – | – | 167.2 | 18 | 145.3 | 131.4 | 131.1 | 194.3 | 67.3 | 174.7 | 171.5 | 147.2 | 149.6 | 195.4 | 130.7 | 188 | –
